Here are results for 14 compounds from ChEMBL document CHEMBL1201862, “PubChem BioAssay data set” (2004).

Among the test systems are 786-0; ACHN; DMS-114; EKVX; HL-60; KM-20L2; MOLT-4; NCI-H522; SNB-78; SR; U-251; UACC-62; DU-145; Hs-578T; MCF7; MDA-MB-231; MDA-MB-435; MDA-N; PC-3; T47D.
What all share (assay): inhibition of tumour cell growth, NCI panel, 48 h

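Protocol summary: plate cells (96-well), add compound at 5 concentrations, incubate 48 h, interpolate endpoints linearly. GI50 is the concentration that inhibits growth by half.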 Calls of active or inactive are those of the source. No stated cut-off is given here; in the data, active = GI50 up to about 1.1 µM and inactive = higher.

`COc1c2c(c(O)c3c4c(c(C)cc13)C1OC3(C(OC)OC5CC(C)(O)C(OC6CC(C)(O)C(O)C(C)O6)C(C)O5)OC1C(OC)(O4)C31CO1)C(=O)C(O)CC2OC1CC(C)(O)C(OC(C)=O)C(C)O1` (stereo not drawn): the GI50 was < 0.01 µM (active) in the test with 786-0; < 0.0112 µM (active) with ACHN; < 0.01 µM (active) in the test with DMS-114; < 0.01 µM (active) in the test on EKVX; < 0.01 µM (active) with HL-60; < 0.01 µM (active) in the test with KM-20L2. The GI50 in the test on MOLT-4, with NCI-H522, in the test with SNB-78, with SR, in the test on U-251 and in the test with UACC-62 was < 0.01 µM (active) throughout.

In the case of `CSC(=N)NNC(=O)CCC(=O)Nc1ccccc1C(F)(F)F`, the GI50 with 786-0 was > 100 µM (inactive); in the test with ACHN, > 100 µM (inactive); with DMS-114, > 100 µM (inactive); with EKVX it was > 100 µM (inactive); in the test on KM-20L2, > 44.7 µM (inactive); in the test on MOLT-4, > 100 µM (inactive). Moreover, the GI50 is > 100 µM (inactive) in the test with NCI-H522; > 61.5 µM (inactive) with SNB-78; > 100 µM (inactive) in the test on SR; > 100 µM (inactive) with U-251; > 100 µM (inactive) in the test on UACC-62.

Regarding `CCN(CC)CC(=N)N(CC)c1ccccc1`, the GI50 in the test on 786-0, with ACHN, in the test on DMS-114, in the test on EKVX, with HL-60 and in the test on KM-20L2 was > 100 µM (inactive) throughout. Moreover, the GI50 in the test with MOLT-4, with NCI-H522, in the test with SNB-78, with U-251 and in the test on UACC-62 was > 100 µM (inactive) throughout.

Turning to `OC12c3ccccc3C1CCCCCC21OCCCO1` (stereo not drawn), the GI50 was > 100 µM (inactive) with 786-0; > 100 µM (inactive) with ACHN; > 100 µM (inactive) with DMS-114; 11.4 µM (inactive) with HL-60; > 100 µM (inactive) in the test on KM-20L2; > 100 µM (inactive) in the test with MOLT-4. Further, the GI50 in the test with NCI-H522, in the test with SNB-78, with U-251 and in the test on UACC-62 was > 100 µM (inactive) throughout.

As to `O=Cc1ccc(CCl)cc1`, the GI50 with ACHN was 22.5 µM (inactive); in the test on DMS-114 it was 6.93 µM (inactive); in the test on EKVX, 45.6 µM (inactive); with HL-60, 4.56 µM (inactive); with KM-20L2, 23.6 µM (inactive); in the test on MOLT-4, 22.9 µM (inactive). In addition, the GI50 in the test with NCI-H522 is 19.7 µM (inactive); with SNB-78 it was 16.5 µM (inactive); in the test with SR, 19.5 µM (inactive); with U-251 it was 18.2 µM (inactive); in the test with UACC-62 it was 12.6 µM (inactive).

Take `NC(=O)c1coc(C2OC(CO)C(O)C2O)n1` (stereo not drawn): the GI50 in the test with 786-0, with ACHN, in the test on DMS-114, in the test with EKVX, in the test on HL-60 and with KM-20L2 was > 100 µM (inactive) each time. Also, the GI50 with MOLT-4, in the test on NCI-H522, with SNB-78, with SR, in the test with U-251 and with UACC-62 was > 100 µM (inactive) each time.

In the case of `O=C(NC1C2CC3CC(C2)CC1C3)c1cc(/C=C/c2ccccc2)nc(S)n1` (stereo not drawn), the GI50 in the test with ACHN, in the test on DMS-114, in the test with EKVX, in the test on HL-60, in the test with KM-20L2 and with MOLT-4 was > 100 µM (inactive) throughout. For the same compound, the GI50 with NCI-H522, in the test on SNB-78, in the test on SR, with U-251 and in the test on UACC-62 was > 100 µM (inactive) throughout.

As for `O=C(NC1C(O)C(O)C(CO)OC1n1cc(F)c(=O)[nH]c1=O)OCc1ccccc1` (stereo not drawn), the GI50 in the test on ACHN, in the test on DMS-114, in the test with HL-60, in the test with KM-20L2, in the test with NCI-H522 and in the test with SNB-78 was > 100 µM (inactive) each time. In addition, the GI50 in the test on SR and in the test on U-251 was > 100 µM (inactive) in each case.

In the case of `COc1cc(C2c3cc4c(cc3OC(N3CCCCC3)C2C)OCO4)cc(OC)c1OC` (stereo not drawn), the GI50 in the test on 786-0 is 3.42 µM (inactive); in the test on ACHN, 6.79 µM (inactive); in the test with DU-145, 3.49 µM (inactive); in the test on EKVX it was 10.3 µM (inactive); with HL-60 it was 2.33 µM (inactive); in the test with Hs-578T it was 2.09 µM (inactive). Also, the GI50 in the test on MCF7 is 1.44 µM (inactive); in the test with MDA-MB-231, 4.98 µM (inactive); in the test with MDA-MB-435, 0.67 µM (active); in the test on MDA-N it was 0.723 µM (active); in the test with MOLT-4, 3.9 µM (inactive); with NCI-H522, 2.49 µM (inactive). Also, the GI50 in the test on PC-3 is 3.5 µM (inactive); in the test with SR it was 3.27 µM (inactive); with T47D it was 4.23 µM (inactive); in the test with U-251 it was 3.2 µM (inactive); with UACC-62 it was 3.53 µM (inactive).

In the case of `CC1CCC(O)/C=C/C(=O)OC(C)C(O)/C=C/C(=O)O1` (stereo not drawn), the GI50 in the test with 786-0 is > 92.9 µM (inactive); with ACHN, > 68.4 µM (inactive); in the test on DU-145, > 100 µM (inactive); in the test on EKVX it was > 100 µM (inactive); in the test with HL-60 it was 37.2 µM (inactive); with Hs-578T it was > 100 µM (inactive). Moreover, the GI50 was > 92.9 µM (inactive) in the test on MCF7; > 100 µM (inactive) in the test with MDA-MB-231; > 100 µM (inactive) in the test with MDA-MB-435; > 95.9 µM (inactive) in the test with MDA-N; 19.1 µM (inactive) with MOLT-4; 35.6 µM (inactive) with NCI-H522. The GI50 with PC-3 is > 100 µM (inactive); in the test on SR, 51.5 µM (inactive); in the test with T47D it was > 100 µM (inactive); in the test with U-251, > 100 µM (inactive); with UACC-62, > 100 µM (inactive).

Consider `COC(=O)C1OC(Oc2cc(O)c3c(=O)cc(-c4ccc(O)cc4)oc3c2)C(O)C(O)C1O` (stereo not drawn), for which the GI50 in the test on DMS-114, in the test with EKVX, with HL-60, in the test on KM-20L2, in the test with MCF7 and in the test with MOLT-4 was > 100 µM (inactive) each time. Also, the GI50 in the test on NCI-H522, in the test on SNB-78, in the test with U-251 and with UACC-62 was > 100 µM (inactive) each time.

Regarding `O=C(O)C(C(=O)O)P(=S)(S)c1ccccc1` (stereo not drawn), the GI50 in the test on 786-0, in the test on ACHN, in the test on DMS-114, in the test with DU-145, with EKVX and in the test with HL-60 was > 100 µM (inactive) each time. Moreover, the GI50 in the test on Hs-578T, in the test on KM-20L2, in the test with MCF7, in the test on MDA-MB-231, in the test on MDA-MB-435 and with MDA-N was > 100 µM (inactive) in each case. Moreover, the GI50 in the test on MOLT-4 was > 30.4 µM (inactive); in the test on NCI-H522, > 100 µM (inactive); in the test with PC-3, > 100 µM (inactive); in the test with SNB-78, > 100 µM (inactive); in the test on SR it was > 73.5 µM (inactive); in the test on T47D, > 100 µM (inactive). Further, the GI50 in the test with U-251 and with UACC-62 was > 100 µM (inactive) each time.

Take `COc1ccc(-c2nnc(-c3nsc4ccccc34)o2)cc1`: the GI50 with ACHN was 33 µM (inactive); in the test with DMS-114, 58.1 µM (inactive); in the test with EKVX it was 38.8 µM (inactive); in the test on KM-20L2, > 100 µM (inactive); in the test with SNB-78, > 100 µM (inactive); with SR, 31.9 µM (inactive). Also, the GI50 with U-251 is 79.6 µM (inactive); in the test with UACC-62, > 100 µM (inactive).

Take `CCCCC1=C(Br)C(=C(Br)Br)OC1=O`: the GI50 was 2.07 µM (inactive) with DMS-114; 2.49 µM (inactive) with EKVX; 1.85 µM (inactive) with HL-60; 8.65 µM (inactive) in the test on KM-20L2; 3.54 µM (inactive) with MCF7; 1.83 µM (inactive) with MOLT-4. The GI50 in the test on NCI-H522 is 1.86 µM (inactive); with SNB-78 it was 6.01 µM (inactive); in the test on U-251, 5.47 µM (inactive); in the test on UACC-62 it was 2.42 µM (inactive).
